Results as given in patent publication US11672802B2, “Induction of immune tolerance by using methotrexate” (Genzyme Corporation, priority 2011, dated 2023).

Tested on: splenic B and T cell subsets
Experiment: Flow cytometry of splenic B and T cell subsets after rhGAA and methotrexate
Format: in vivo, mice
Protocol: 20 mg/kg of Myozyme® (Genzyme Corporation) was given by tail vein injection once or for 2-6 weekly doses, commencing with the first methotrexate dose. Animals were sacrificed weekly or daily after initiation of treatment. Spleen, mesenteric, and inguinal lymph nodes were collected for flow cytometric analysis of T and B cell subsets and sera was collected for ELISA assays. Spleens were processed between glass slides and red blood cells (RBC) was lysed with lysing buffer purchased from BD Biosciences (catalog#555899) according to the manufacturer's instructions. Lymph nodes were processed between glass slides and washed with phosphate buffered saline (PBS) containing 2% fetal calf serum (FCS). Cells were resuspended in 200 μL of PBS containing 4% fetal bovine serum and 25 μg/mL of total mouse IgG and blocked for 30 minutes at 4° C. Approximately 3 million spleens cells and 1 million lymph node cells were stained with different antibody cocktails and analyzed with a high through put sampler (HTS) on a Becton Dickinson CANTOII flow cytometer. At least 100,000 cell events were acquired within the lymphocyte gate. Anti-mouse antibody cocktails consisted of PE-CD21/35 catalog #552957, FITC-catalog #553138, PE-CD138 catalog #553714, PE-PE-Cy7-CD4 catalog #552775, FITC-CD3e catalog #553062, APC-CD11b catalog #553312, PE-Cy7-IgM catalog #552867, APC-Cy7-CD8 catalog #557654, PE-CD273 (PD-L2) catalog #557796, APC-CD138 catalog #558626, PE-Cy7-CD11b catalog #552850, PE-CD93 (early B lineage) catalog #558039, APC-CD69 catalog #560689, Pe-Cy7-CD24 catalog #560536, FITC-CD1d catalog #553845, APC-CD5 catalog #550035, and Percp-Cy5-7AAD catalog #559925, all purchased from BD Pharmingen. FITC-FoxP3 intracellular staining kit was purchased from eBioscience. Pacific Blue (PB)-CD25 catalog #102022, PB-CD23 catalog #101616 and PB-CD86 catalog #105022 were purchased from BioLegend. Analysis of lymphocyte subsets was performed with FCS express version 3 software provided by De Novo Software. Percentages were generated with the batch processing option and absolute numbers were calculated according to the cell counts obtained. Spleen and lymph node cell counts were obtained with a Beckman Coulter Vi-cell XR cell viability analyzer according to the manufacturer's instructions.
C57BL/6 (Jackson Laboratories) or E4GAAKO (Charles River) mice 8-12 weeks old were given 5 mg/kg of methotrexate (Calbiochem catalog #454125) by intraperitoneal injection for 1 cycle (3 consecutive daily doses) commencing with treatment with 20 mg/kg of rhGAA. For the 1D11 studies, animals were treated with intraperitoneal injections of 5 mg/kg of either 1D11 or 13C4 (Genzyme Corporation) 3 time per week, every other day, commencing with rhGAA and methotrexate treatment. Animals were sacrificed on day 6 or 7 post rhGAA initiation depending on the mouse strain. Spleens were prepared in single cell suspension and loaded onto the RoboSep (STEMCELL technologies) instrument according to the manufacturer's instructions and subjected to B cell negative selection. Purified B cells were seeded at 500,000 cells per well in 96 well round bottom plates (Costar catalog #3799) and either incubated with no stimulation or with 10 μg/mL of LPS (Sigma catalog #L5014) for 48 hours at 37° C. All wells received Monensin (BD Bioscience catalog #554724) according to the manufacturer's instructions. Cells were allowed to incubate for at least 4 hours at 37° C. Samples were transferred to V bottom wells (USA Scientific catalog #651201) and spun at 1200 rpm for 5 minutes at 4° C. Cells were resuspended in 200 μL of PBS containing 4% fetal bovine serum and 25 μg/ml of total mouse IgG and blocked for 30 minutes at 4° C.

[1] = Myozyme and methotrexate vs Myozyme alone

**Q.** `CN(Cc1cnc2nc(N)nc(N)c2n1)c1ccc(C(=O)N[C@@H](CCC(=O)O)C(=O)O)cc1` [methotrexate, Methotrexate] was tested. Which “IL-10, TGFbeta and FoxP3 mean fluorescence intensity in multiple cell subsets” value [1] did it give?
**A.** statistically significant increases

**Q.** What about the “number of B10 B cells expressing IL-10” value [1] of the same compound?
**A.** increased

**Q.** What about the “activated B cell subsets (marginal zone, follicular, transitional 2 and 3)” value (following methotrexate treatment with rhGAA) of the same compound?
**A.** significantly increased

**Q.** What about the “numbers of FoxP3+ B cells” value (methotrexate and Myozyme) of the same compound?
**A.** increase

**Q.** What about the “absolute cell numbers of IL-10, TGF-beta and FoxP3 expressing transitional 2, transitional 3 and follicular B cells” value (methotrexate vs Myozyme alone) of the same compound?
**A.** increased

**Q.** And the “numbers of TGF-beta-expressing B10 B cells” value (methotrexate-tolerized animals)?
**A.** increased

**Q.** And the “B10 regulatory B cell population” value (seven and eight days following Myozyme treatment)?
**A.** significant increases

**Q.** What about the “activated T helper, T cytotoxic and T regulatory cell populations” value (two cycles of Myozyme and methotrexate) of the same compound?
**A.** largely unchanged
